The numbers were not newly measured in US20220000751A1, “METHOD FOR PREPARING AND USING HAIR TREATMENT AGENTS WITH ORGANIC C1-C6-ALKOXY-SILANES” (Henkel AG & Co. KGaA, priority 2020, published 2022), which cites them from elsewhere.

The conditions of this data set: 25° C.

As to `CCN(Cc1cccc(S(=O)(=O)O)c1)c1ccc(C(=C2C=CC(=[N+](CC)Cc3cccc(S(=O)(=O)O)c3)C=C2)c2ccccc2S(=O)(=O)[O-])cc1` [Acid Blue 9], the solubility in water entry is on record as “more than 20 % by weight”. `O=S(=O)(O)c1ccc(N=Nc2c(O)ccc3ccccc23)cc1` [Acid Orange 7, 4-[(2-hydroxy-1-naphthyl)azo]benzene sulphonate]: the solubility in water entry is recorded as “more than 7 g/L”. In the case of `O=C(O)C1=NN(c2ccc(S(=O)(=O)O)cc2)C(=O)C1N=Nc1ccc(S(=O)(=O)O)cc1` (stereo not drawn) [Acid Yellow 23, 4,5-dihydro-5-oxo-1-(4-sulfophenyl)-4-((4-sulfophenyl)azo)-1H-pyrazole-3-carboxylic acid], the “solubility in water (in words)” value is “highly soluble”.
